Data as given in PubChem BioAssay AID248 (DTP/NCI, 2004).
Values joined by “and” are separate entries in the source; they are usually repeats but may differ in a detail not shown here. Identical values can stand only once. Inconclusive results and toxic doses are left out.

System: L1210 leukemia ip in BDF1 mice, survival T/C
Test: NCI In Vivo Anticancer Drug Screen. Data for tumor model L1210 Leukemia (intraperitoneal) in B6D2F1 (BDF1) mice
Conditions: endpoint: mean survival time, higher = longer survival
Procedure, shortened: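 Transplantable tumor model; survival measured in treated vs vehicle control mice. Value = treated/control.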

[1] = dose: 100.0 mg/kg/injection, schedule: Q01DX009 (ip), vehicle: Klucel (hydroxypropylcellulose) (HPC)
[2] = dose: 100.0 mg/kg/injection, schedule: Q04DX003 (ip), vehicle: Klucel (hydroxypropylcellulose) (HPC)
[3] = dose: 200.0 mg/kg/injection, schedule: Q01DX009 (ip), vehicle: Klucel (hydroxypropylcellulose) (HPC)
[4] = dose: 200.0 mg/kg/injection, schedule: Q04DX003 (ip), vehicle: Klucel (hydroxypropylcellulose) (HPC)
[5] = dose: 400.0 mg/kg/injection, schedule: Q01DX009 (ip), vehicle: Klucel (hydroxypropylcellulose) (HPC)
[6] = dose: 400.0 mg/kg/injection, schedule: Q04DX003 (ip), vehicle: Klucel (hydroxypropylcellulose) (HPC)
[7] = dose: 50.0 mg/kg/injection, schedule: Q01DX009 (ip), vehicle: saline with Tween-80
[8] = dose: 100.0 mg/kg/injection, schedule: Q01DX009 (ip), vehicle: saline with Tween-80
[9] = dose: 200.0 mg/kg/injection, schedule: Q01DX009 (ip), vehicle: saline with Tween-80
[10] = dose: 100.0 mg/kg/injection, schedule: Q01DX001 (ip), vehicle: saline with Tween-80
[11] = dose: 200.0 mg/kg/injection, schedule: Q01DX001 (ip), vehicle: saline with Tween-80
[12] = dose: 400.0 mg/kg/injection, schedule: Q01DX001 (ip), vehicle: saline with Tween-80
[13] = dose: 100.0 mg/kg/injection, schedule: Q04DX002 (ip), vehicle: Klucel (hydroxypropylcellulose) (HPC)
[14] = dose: 200.0 mg/kg/injection, schedule: Q04DX002 (ip), vehicle: Klucel (hydroxypropylcellulose) (HPC)
[15] = dose: 50.0 mg/kg/injection, schedule: Q01DX001 (ip), vehicle: carboxymethylcellulose (CMC)
[16] = dose: 100.0 mg/kg/injection, schedule: Q01DX001 (ip), vehicle: carboxymethylcellulose (CMC)
[17] = dose: 200.0 mg/kg/injection, schedule: Q01DX001 (ip), vehicle: carboxymethylcellulose (CMC)
[18] = dose: 400.0 mg/kg/injection, schedule: Q01DX001 (ip), vehicle: carboxymethylcellulose (CMC)
[19] = dose: 50.0 mg/kg/injection, schedule: Q01DX009 (ip), vehicle: Klucel (hydroxypropylcellulose) (HPC)

For `CCOc1ccc(C(C)CC(=O)NN)c(O)c1` (stereo unspecified), the T/C (dose: 75.0 mg/kg/injection, schedule: Q01DX001 (ip), vehicle: saline with Tween-80) was 95 % of control, the T/C (dose: 150.0 mg/kg/injection, schedule: Q01DX001 (ip), vehicle: saline with Tween-80) was 98 % of control and the T/C (dose: 300.0 mg/kg/injection, schedule: Q01DX001 (ip), vehicle: saline with Tween-80) was 101 % of control.
For `CC(C)CC(CC(C)C)NCCO`, the T/C (dose: 75.0 mg/kg/injection, schedule: Q01DX001 (ip), vehicle: acid diluted with saline) was 103 % of control.
With `CN(Cc1cnc2nc(N)nc(N)c2n1)c1ccc(C(=O)NC(CCC(=O)O)C(=O)O)cc1I` (stereo unspecified) the T/C (dose: 2.5 mg/kg/injection, schedule: Q01DX009 (ip), vehicle: sodium bicarbonate) was 176 % of control, the T/C (dose: 5.0 mg/kg/injection, schedule: Q01DX009 (ip), vehicle: sodium bicarbonate) was 175 % of control and the T/C (dose: 10.0 mg/kg/injection, schedule: Q01DX009 (ip), vehicle: sodium bicarbonate) was 104 % of control.
With `CC1B(O)Nc2nc(=S)[nH]c(N)c21` (stereo unspecified) the T/C (dose: 100.0 mg/kg/injection, schedule: Q04DX003 (ip), vehicle: saline sonified) was 104 % of control and the T/C (dose: 200.0 mg/kg/injection, schedule: Q04DX003 (ip), vehicle: saline sonified) was 103 % of control.
With `ClCc1nc2ccc(Cl)cc2[nH]1` the T/C (dose: 100.0 mg/kg/injection, schedule: Q01DX001 (ip), vehicle: other) was 104 % of control and the T/C (dose: 200.0 mg/kg/injection, schedule: Q01DX001 (ip), vehicle: other) was 106 % of control.
With `CCOC(=O)CC(=O)c1ccc(OCCOc2ccc(C(C)(C)CC(C)(C)C)cc2)cc1` the T/C [1] was 95 % of control, the T/C [2] was 89 % of control and the T/C [3] was 97 % of control. For the same molecule, the T/C [4] was 96 % of control, the T/C [5] was 87 % of control and the T/C [6] was 86 % of control.
`Cc1c(C)c(C)c([N+](=O)[O-])c([N+](=O)[O-])c1C` was tested, and the T/C [7] was 112 % of control, the T/C [8] was 93 % of control and the T/C (dose: 100.0 mg/kg/injection, schedule: Q04DX002 (ip), vehicle: saline with Tween-80) was 97 % of control. The T/C [9] was 93 % of control and the T/C (dose: 200.0 mg/kg/injection, schedule: Q04DX002 (ip), vehicle: saline with Tween-80) was 114 % of control.
`Cc1ccc([N+](=O)[O-])c2ccccc12` was tested, and the T/C [10] was 103 % of control, the T/C [11] was 97 % of control and the T/C [12] was 97 % of control.
In the case of `O=S(=O)(CCCl)Cc1ccc(Cl)cc1`, the T/C [13] is reported as 104 % of control and the T/C [14] is reported as 93 % of control.
With `CC1=COC2CCCCC2O1` (stereo unspecified) (tested in a mixture with another compound) the T/C (dose: 50.0 mg/kg/injection, schedule: Q01DX009 (ip), vehicle: acetone) was 92 % of control, the T/C (dose: 100.0 mg/kg/injection, schedule: Q01DX009 (ip), vehicle: acetone) was 95 % of control and the T/C (dose: 100.0 mg/kg/injection, schedule: Q04DX003 (ip), vehicle: acetone) was 103 % of control and 94 % of control. The T/C (dose: 200.0 mg/kg/injection, schedule: Q04DX003 (ip), vehicle: acetone) was 104 % of control and 96 % of control and 100 % of control and the T/C (dose: 400.0 mg/kg/injection, schedule: Q04DX003 (ip), vehicle: acetone) was 96 % of control and 89 % of control.
For `COc1cc(NS(C)(=O)=O)ccc1Nc1c2ccccc2nc2c(C)cccc12`, the T/C (dose: 0.62 mg/kg/injection, schedule: Q01DX009 (ip), vehicle: saline) was 100 % of control, the T/C (dose: 1.25 mg/kg/injection, schedule: Q01DX009 (ip), vehicle: Klucel (hydroxypropylcellulose) (HPC)) was 124 % of control and the T/C (dose: 1.25 mg/kg/injection, schedule: Q01DX009 (ip), vehicle: saline) was 111 % of control. The T/C (dose: 2.5 mg/kg/injection, schedule: Q01DX009 (ip), vehicle: saline) was 160 % of control, the T/C (dose: 2.5 mg/kg/injection, schedule: Q01DX009 (sc), vehicle: saline) was 116 % of control and the T/C (dose: 2.5 mg/kg/injection, schedule: Q04DX003 (ip), vehicle: saline) was 121 % of control. The T/C (dose: 5.0 mg/kg/injection, schedule: Q01DX009 (ip), vehicle: Klucel (hydroxypropylcellulose) (HPC)) was 118 % of control, the T/C (dose: 5.0 mg/kg/injection, schedule: Q01DX009 (ip), vehicle: saline) was 163 % of control and the T/C (dose: 10.0 mg/kg/injection, schedule: Q01DX009 (ip), vehicle: Klucel (hydroxypropylcellulose) (HPC)) was 103 % of control. The T/C (dose: 10.0 mg/kg/injection, schedule: Q01DX009 (sc), vehicle: saline) was 112 % of control, the T/C (dose: 10.0 mg/kg/injection, schedule: Q04DX003 (ip), vehicle: saline) was 159 % of control and 164 % of control and the T/C (dose: 20.0 mg/kg/injection, schedule: Q04DX003 (ip), vehicle: saline) was 213 % of control and 234 % of control.
`CCSC(=S)n1c2ccccc2c2ccccc21` was tested, and the T/C (dose: 100.0 mg/kg/injection, schedule: Q01DX001 (ip), vehicle: Klucel (hydroxypropylcellulose) (HPC)) was 98 % of control, the T/C [1] was 101 % of control and the T/C (dose: 200.0 mg/kg/injection, schedule: Q01DX001 (ip), vehicle: Klucel (hydroxypropylcellulose) (HPC)) was 101 % of control. The T/C [3] was 96 % of control, the T/C (dose: 400.0 mg/kg/injection, schedule: Q01DX001 (ip), vehicle: Klucel (hydroxypropylcellulose) (HPC)) was 92 % of control and the T/C [5] was 101 % of control.
With `CCNC(=O)c1cc(NCC)nc(Cl)n1` the T/C [2] was 97 % of control, the T/C [4] was 94 % of control and the T/C [6] was 101 % of control.
`CCOC(=O)c1ccc(NC(=O)Nc2ccc(F)c([N+](=O)[O-])c2)cc1` was tested, and the T/C [1] was 95 % of control, the T/C [3] was 101 % of control and the T/C [5] was 96 % of control.
`CCN(CC)CCOCCN(CC)CC` was tested, and the T/C (dose: 75.0 mg/kg/injection, schedule: Q01DX001 (ip), vehicle: saline) was 98 % of control and the T/C (dose: 150.0 mg/kg/injection, schedule: Q01DX001 (ip), vehicle: saline) was 102 % of control.
In the case of `COc1ccc(NC(=O)Nc2ccc(NC(C)=O)cc2)cc1`, the T/C [8] is reported as 86 % of control and the T/C [9] is reported as 92 % of control.
`CC1(CO)CC2CCC1C2` (stereo unspecified) was tested, and the T/C [2] was 104 % of control, the T/C [4] was 108 % of control and the T/C [6] was 106 % of control.
`N#CCCOCC(OCCC#N)C(COCCC#N)OCCC#N` (stereo unspecified) was tested, and the T/C [15] was 95 % of control, the T/C [16] was 97 % of control and the T/C [17] was 97 % of control. The T/C [18] was 92 % of control.
For `COc1ccc(OC)c2c1CCCC21OCCO1`, the T/C [7] was 105 % of control, the T/C [10] was 95 % of control and the T/C [8] was 102 % of control. For the same molecule, the T/C [11] was 96 % of control and the T/C [9] was 100 % of control.
In the case of `COc1ccc([N+](=O)[O-])cc1NS(=O)(=O)c1ccc(C)cc1`, the T/C (dose: 50.0 mg/kg/injection, schedule: Q04DX003 (ip), vehicle: saline with Tween-80) is reported as 95 % of control, the T/C (dose: 100.0 mg/kg/injection, schedule: Q04DX003 (ip), vehicle: saline with Tween-80) is reported as 94 % of control and 90 % of control and the T/C (dose: 200.0 mg/kg/injection, schedule: Q04DX003 (ip), vehicle: saline with Tween-80) is reported as 86 % of control and 92 % of control. The T/C (dose: 400.0 mg/kg/injection, schedule: Q04DX003 (ip), vehicle: saline with Tween-80) was 92 % of control.
With `Cn1c(=O)c2ccccc2c2cc([N+](=O)[O-])ccc21` the T/C [19] was 93 % of control, the T/C [1] was 97 % of control and the T/C [2] was 90 % of control. The T/C [3] was 97 % of control and the T/C [4] was 94 % of control.
For `COC(=O)/C=C\C=C\C(=O)OC`, the T/C [15] was 95 % of control, the T/C [16] was 94 % of control and the T/C [17] was 98 % of control. The T/C [18] was 98 % of control.
With `O=C1OC(CN2CCOCC2)CN1/N=C/c1ccc([N+](=O)[O-])o1` (stereo unspecified) the T/C (dose: 25.0 mg/kg/injection, schedule: Q01DX009 (ip), vehicle: Klucel (hydroxypropylcellulose) (HPC)) was 104 % of control, the T/C [19] was 92 % of control and the T/C [10] was 97 % of control. The T/C [1] was 101 % of control, the T/C [13] was 310 % of control and the T/C (dose: 100.0 mg/kg/injection, schedule: Q04DX002 (ip), vehicle: saline) was 105 % of control. The T/C [11] was 97 % of control, the T/C [14] was 90 % of control and the T/C (dose: 200.0 mg/kg/injection, schedule: Q04DX002 (ip), vehicle: saline) was 98 % of control. The T/C [12] was 104 % of control.
With `CCCC(C)C(=O)c1ccccc1` (stereo unspecified) the T/C [1] was 96 % of control, the T/C [2] was 103 % of control and the T/C [3] was 93 % of control. For the same molecule, the T/C [4] was 110 % of control, the T/C [5] was 96 % of control and the T/C [6] was 108 % of control.
